Counter-ions that a name gives are not always drawn.
What was measured:
[1] = target: CK1ε (Homo sapiens (Human), UniProt P49674); assay: CK1ε kinase assay (Caliper LabChip, fluoresceinated peptide substrate); format: biochemical; settings: 200 pM CK1ε, 50 μM ATP, 1.5 μM peptide substrate, 22 hours room temperature
Method: (§1) CK1ε and CK1δ Kinase Assays
(§2) The kinase assay was performed in V-bottom 384-well plates. […] The reaction was incubated at room temperature for 22 hours and terminated by adding 45 μl of 35 mM EDTA to each sample. […] Compounds were dissolved at 10 mM in dimethylsulfoxide (DMSO) and evaluated at eleven concentrations. IC50 values were derived by non-linear regression analysis.

[2] = target: CK1δ (Homo sapiens (Human), UniProt P48730); assay: CK1δ kinase assay (Caliper LabChip, fluoresceinated peptide substrate); format: biochemical; settings: 200 pM CK1δ, 50 μM ATP, 1.5 μM peptide substrate, 22 hours room temperature
Method: as §1, §2

CK1δ, sequence (P48730 whole entry): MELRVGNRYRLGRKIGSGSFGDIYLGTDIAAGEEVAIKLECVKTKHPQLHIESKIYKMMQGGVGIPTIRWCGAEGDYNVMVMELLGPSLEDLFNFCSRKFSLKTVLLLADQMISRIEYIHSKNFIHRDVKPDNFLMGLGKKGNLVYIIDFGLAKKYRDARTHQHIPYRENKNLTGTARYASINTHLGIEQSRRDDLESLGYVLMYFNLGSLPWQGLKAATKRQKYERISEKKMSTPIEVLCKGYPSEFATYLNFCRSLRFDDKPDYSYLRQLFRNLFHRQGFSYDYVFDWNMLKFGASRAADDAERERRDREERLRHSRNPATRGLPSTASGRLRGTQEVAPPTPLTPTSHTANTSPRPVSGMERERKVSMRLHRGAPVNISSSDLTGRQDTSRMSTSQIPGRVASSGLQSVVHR
CK1ε, sequence (P49674 whole entry): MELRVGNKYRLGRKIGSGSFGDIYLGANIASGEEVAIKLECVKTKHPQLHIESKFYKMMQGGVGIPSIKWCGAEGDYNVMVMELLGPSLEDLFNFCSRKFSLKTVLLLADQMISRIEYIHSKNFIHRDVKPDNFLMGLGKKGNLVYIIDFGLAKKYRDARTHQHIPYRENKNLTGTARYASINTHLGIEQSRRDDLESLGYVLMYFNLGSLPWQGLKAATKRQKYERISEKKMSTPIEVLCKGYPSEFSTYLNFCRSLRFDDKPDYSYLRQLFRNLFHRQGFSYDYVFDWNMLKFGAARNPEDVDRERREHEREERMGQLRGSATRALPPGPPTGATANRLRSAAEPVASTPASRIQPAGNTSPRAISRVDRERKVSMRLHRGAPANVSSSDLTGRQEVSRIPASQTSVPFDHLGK

SMILES | IC50 [1] | IC50 [2]
Cn1cc(-c2ccc3nc(NC(=O)c4ccccc4)c(C#N)n3n2)c(-c2ccc(F)cc2)n1 [Compound 190, N-(3-Cyano-6-(3-(4-fluorophenyl)-1-methyl-1H-pyrazol-4-yl)imidazo[1,2-b]pyridazin-2-yl)benzamide] | 14.5 nM | 4.2 nM
Cn1cc(-c2ccc3nc(NC(=O)c4ccccc4)c(Cl)n3n2)c(-c2ccc(F)cc2)n1 [Compound 191, N-(3-Chloro-6-(3-(4-fluorophenyl)-1-methyl-1H-pyrazol-4-yl)imidazo[1,2-b]pyridazin-2-yl)benzamide] | 153 nM | 24.5 nM
Cn1cc(-c2ccc3nc(NC(=O)c4ccccc4)c(F)n3n2)c(-c2ccc(F)cc2)n1 [Compound 192, N-(3-Fluoro-6-(3-(4-fluorophenyl)-1-methyl-1H-pyrazol-4-yl)imidazo[1,2-b]pyridazin-2-yl)benzamide] | 23.3 nM | 5.6 nM
Cn1cc(-c2ccc3nc(NC(=O)c4ccncc4)c(Br)n3n2)c(-c2ccc(F)cc2)n1 [Compound 193, N-(3-Bromo-6-(3-(4-fluorophenyl)-1-methyl-1H-pyrazol-4-yl)imidazo[1,2-b]pyridazin-2-yl)isonicotinamide] | 102 nM | 17 nM
Cn1cc(-c2ccc3nc(NC(=O)c4ccncc4)c(-c4ccncc4)n3n2)c(-c2ccc(F)cc2)n1 [Compound 194, N-(6-(3-(4-Fluorophenyl)-1-methyl-1H-pyrazol-4-yl)-3-(pyridin-4-yl)imidazo[1,2-b]pyridazin-2-yl)isonicotinamide, 2 TFA] | 554 nM | 97 nM
Cn1nc(-c2ccc(F)cc2)c(-c2ccc3nc(NC(=O)c4ccnc(F)c4)cn3n2)c1C1CCOCC1 [Compound 196, 2-Fluoro-N-(6-(3-(4-fluorophenyl)-1-methyl-5-(tetrahydro-2H-pyran-4-yl)-1H-pyrazol-4-yl)imidazo[1,2-b]pyridazin-2-yl)isonicotinamide] | 2 nM | 0.2 nM
Cn1nc(-c2ccc(F)cc2)c(-c2ccc3nc(NC(=O)c4ccncc4)cn3n2)c1C1CCOCC1 [Compound 197, N-(6-(3-(4-Fluorophenyl)-1-methyl-5-(tetrahydro-2H-pyran-4-yl)-1H-pyrazol-4-yl)imidazo[1,2-b]pyridazin-2-yl)isonicotinamide] | 1.8 nM | 0.3 nM
Cc1nc(-c2cccnc2)sc1C(=O)Nc1cn2nc(-c3c(-c4ccc(F)cc4)nn(C)c3C3CCOCC3)ccc2n1 [Compound 201, N-(6-(3-(4-Fluorophenyl)-1-methyl-5-(tetrahydro-2H-pyran-4-yl)-1H-pyrazol-4-yl)imidazo[1,2-b]pyridazin-2-yl)-4-methyl-2-(pyridin-3-yl)thiazole-5-carboxamide] | 2.3 nM | 0.3 nM
Cn1nc(-c2ccc(F)cc2)c(-c2ccc3nc(NC(=O)c4ccnc(N5CCOCC5)c4)cn3n2)c1-c1ccncc1 [Compound 203, N-(6-(3-(4-Fluorophenyl)-1-methyl-5-(pyridin-4-yl)-1H-pyrazol-4-yl)imidazo[1,2-b]pyridazin-2-yl)-2-morpholinoisonicotinamide] | 7.9 nM | 0.9 nM
Cn1nc(-c2ccc(F)cc2)c(-c2ccc3nc(NC(=O)c4ccncc4)cn3n2)c1-c1ccncc1 [Compound 204, N-(6-(3-(4-Fluorophenyl)-1-methyl-5-(pyridin-4-yl)-1H-pyrazol-4-yl)imidazo[1,2-b]pyridazin-2-yl)isonicotinamide] | 3.2 nM | 0.4 nM

More lines, in order of falling IC50 [1], values ahead:

IC50 [1] | IC50 [2] | SMILES
257 nM | 38.8 nM | Cn1cc(-c2ccc3nc(NC(=O)c4ccccc4)c(Br)n3n2)c(-c2ccc(F)cc2)n1 [Compound 189, N-(3-Bromo-6-(3-(4-fluorophenyl)-1-methyl-1H-pyrazol-4-yl)imidazo[1,2-b]pyridazin-2-yl)benzamide]
137 nM | 54 nM | Cc1c(NC(=O)c2ccccc2)nc2ccc(-c3cn(C)nc3-c3ccc(F)cc3)nn12 [Compound 195, N-(6-(3-(4-Fluorophenyl)-1-methyl-1H-pyrazol-4-yl)-3-methylimidazo[1,2-b]pyridazin-2-yl)benzamide, 2 TFA]
9.8 nM | 0.9 nM | Cn1nc(-c2ccc(F)cc2)c(-c2ccc3nc(NC(=O)c4cccc(-c5cccnc5)c4)cn3n2)c1-c1ccncc1 [Compound 205, N-(6-(3-(4-Fluorophenyl)-1-methyl-5-(pyridin-4-yl)-1H-pyrazol-4-yl)imidazo[1,2-b]pyridazin-2-yl)-3-(pyridin-3-yl)benzamide]
8.1 nM | 0.5 nM | Cn1nc(-c2ccc(F)cc2)c(-c2ccc3nc(NC(=O)c4ccnc(F)c4)cn3n2)c1-c1ccncc1 [Compound 202, 2-Fluoro-N-(6-(3-(4-fluorophenyl)-1-methyl-5-(pyridin-4-yl)-1H-pyrazol-4-yl)imidazo[1,2-b]pyridazin-2-yl)isonicotinamide]
4.8 nM | 0.5 nM | Cn1nc(-c2ccc(F)cc2)c(-c2ccc3nc(NC(=O)c4ccnc(N5CCOCC5)c4)cn3n2)c1C1CCOCC1 [Compound 198, N-(6-(3-(4-Fluorophenyl)-1-methyl-5-(tetrahydro-2H-pyran-4-yl)-1H-pyrazol-4-yl)imidazo[1,2-b]pyridazin-2-yl)-2-morpholinoisonicotinamide]
3 nM | 0.3 nM | Cc1nc(-c2ccncc2)sc1C(=O)Nc1cn2nc(-c3c(-c4ccc(F)cc4)nn(C)c3C3CCOCC3)ccc2n1 [Compound 200, N-(6-(3-(4-Fluorophenyl)-1-methyl-5-(tetrahydro-2H-pyran-4-yl)-1H-pyrazol-4-yl)imidazo[1,2-b]pyridazin-2-yl)-4-methyl-2-(pyridin-4-yl)thiazole-5-carboxamide]
1.9 nM | 0.2 nM | Cn1nc(-c2ccc(F)cc2)c(-c2ccc3nc(NC(=O)c4cccc(-c5cccnc5)c4)cn3n2)c1C1CCOCC1 [Compound 199, N-(6-(3-(4-Fluorophenyl)-1-methyl-5-(tetrahydro-2H-pyran-4-yl)-1H-pyrazol-4-yl)imidazo[1,2-b]pyridazin-2-yl)-3-(pyridin-3-yl)benzamide]

— patent publication US9475817B2 (BRISTOL-MYERS SQUIBB COMPANY, priority 2012, dated 2016)
